# Reference: ChEMBL document CHEMBL5321295, “Targeted Degradation of Alpha-Synuclein by Autophagosome-Anchoring Chimera Peptides” (J Med Chem, 2023)
# The source made the active and inactive calls. The rule behind the calls is not given here.
# How the values were obtained:
# SH-SY5Y [1] = test: Cytoprotective activity in human SH-SY5Y cells transfected with alpha-synuclein (unknown origin) assessed as cell viability at 25 uM by CCK8 assay relative to control; assay type: functional; details: read-out: Activity
# SH-SY5Y [2] = test: Cytoprotective activity in human SH-SY5Y cells transfected with alpha-synuclein (unknown origin) assessed as late apoptotic cells at 100 uM measured after 24 hrs by […] based flow cytometry (reference value: 56.6 %); assay type: functional
# [3] = Toxicity in C57BL/6 mouse assessed as change in urea level at 50 to 200 mg/kg/day treated for 5 days; assay type: organism-based; details: in vivo, 120 h, dose 50-200 mg/kg/day, time 5 day
# Mus musculus [4] = test: Neuroprotective activity in MPTP-induced cognitive impairment in C57BL/6 mouse assessed as decrease in mean speed in navigation trial phase at 50 mg/kg/day, iv treated for 5 days measured after 5 to 8 days days by morris water maze test; assay type: functional, organism-based; details: time 10-13 day
# [5] = molecular target: T1, Microtubule-associated protein 1 light chain 3 beta (Homo sapiens, UniProt Q9GZQ8); test: Binding affinity to biotinylated recombinant LC3B (unknown origin) assessed as dissociation constant by BLI assay
# [6] = Toxicity in C57BL/6 mouse assessed as change in CKMB level at 50 to 200 mg/kg/day treated for 5 days; assay type: organism-based; details: in vivo, 120 h, dose 50-200 mg/kg/day, time 5 day
# [7] = Toxicity in C57BL/6 mouse assessed as body weight loss at 50 to 200 mg/kg/day treated for 5 days; assay type: organism-based; details: in vivo, 120 h, dose 50-200 mg/kg/day, time 5 day
# Mus musculus [8] = test: Neuroprotective activity in MPTP-induced anxiety-like status in C57BL/6 mouse assessed as increase in time spent in zone centers of mouse track at 50 mg/kg/day, iv treated for 5 days measured after 4 days by open field test; assay type: functional, organism-based; details: time 9.0 day
# HEK-293T [9] = test: Downregulation of PSMB7 expression in HEK293T cells at 100 uM incubated for 24 hrs by proteomic profiling analysis; assay type: functional, cell-based; details: Homo sapiens
# [10] = Toxicity in C57BL/6 mouse assessed as histological change in liver at 50 to 200 mg/kg/day treated for 5 days by H and E staining based analysis; assay type: organism-based; details: in vivo, 120 h, dose 50-200 mg/kg/day, time 5 day
# SH-SY5Y [11] = test: Cytoprotective activity in human SH-SY5Y cells transfected with alpha-synuclein (unknown origin) assessed as cell viability at 50 uM by CCK8 assay relative to control; assay type: functional; details: read-out: Activity
# SH-SY5Y [12] = test: Cytoprotective activity in human SH-SY5Y cells assessed as decrease in CCCP-induced ROS level at 100 uM measured after 24 hrs by DCFH-DA staining based confocal laser scanning microscopy; assay type: functional, cell-based
# [13] = molecular target: T1, Microtubule-associated protein 1 light chain 3 beta; test: Binding affinity to LC3B in HEK293T cells overexpressing alpha-synuclein (unknown origin) assessed as shift in denaturation at 50 uM incubated for 4 hrs followed by heating at 40 to 75 degreeC for 3 mins by CETSA assay; assay type: cell-based; details: time 243.0 min
# [14] = molecular target: T1, Microtubule-associated protein 1 light chain 3 beta; test: Induction of LC3B-mediated autophagy flux in HEK293T cells overexpressing alpha-synuclein (unknown origin) cotransfected with adenovirus-packaged plasmid encoding mCherry-EGFP-fused LC3B assessed as increase in number of autolysosomes incubated for 4 hrs by confocal laser scanning microscopy; assay type: cell-based; details: dose <= 100.0 µM
# [15] = Toxicity in C57BL/6 mouse assessed as change in cardiac electrophysiology at 50 to 100 mg/kg/day treated for 5 days by ECG analysis; assay type: organism-based; details: in vivo, 120 h, dose 50-100 mg/kg/day, time 5 day
# SH-SY5Y [16] = test: Cytoprotective activity in human SH-SY5Y cells assessed as increase in CCCP-induced mitochondrial membrane potential level at 100 uM measured after 24 hrs by JC-1 staining based confocal laser scanning microscopy; assay type: functional, cell-based
# [17] = Toxicity in C57BL/6 mouse assessed as dyspnea at 50 to 200 mg/kg/day treated for 5 days; assay type: organism-based; details: in vivo, 120 h, dose 50-200 mg/kg/day, time 5 day
# HEK-293T [18] = test: Downregulation of AKR1B1 expression in HEK293T cells at 100 uM incubated for 24 hrs by proteomic profiling analysis; assay type: functional, cell-based; details: Homo sapiens
# Alpha-synuclein [19] = molecular target: T2, Alpha-synuclein (Homo sapiens, UniProt P37840); test: Induction of alpha-synuclein (unknown origin) degradation overexpressed in HEK293T cells with LC3B knockdown at 50 uM incubated for 24 hrs by immunoblot analysis; assay type: cell-based
# Mus musculus [20] = test: Neuroprotective activity in MPTP-treated C57BL/6 mouse assessed as decrease in impaired neurons in substantia nigra pars compacta at 50 mg/kg/day, iv treated for 5 days by FJB staining based microscopy; assay type: functional, organism-based; details: time 5.0 day
# Mus musculus [21] = test: Downregulation of phosphorylated alpha-synuclein at S129 residue level in substantia nigra pars compacta of MPTP-treated C57BL/6 mouse at 50 mg/kg/day, iv treated for 5 days by dot blot analysis; assay type: functional, organism-based; details: time 5.0 day
# [22] = molecular target: T1, Microtubule-associated protein 1 light chain 3 beta; test: Induction of LC3B-mediated autophagy flux in HEK293T cells overexpressing alpha-synuclein (unknown origin) assessed as increase in ratio of LC3B-II to LC3B-I levels incubated for 4 hrs by immunoblot analysis; assay type: cell-based; details: dose <= 100.0 µM
# Mus musculus [23] = test: Neuroprotective activity in MPTP-treated C57BL/6 mouse assessed as neuron viability in substantia nigra pars compacta at 50 mg/kg/day, iv treated for 5 days by Nissl staining based microscopy; assay type: functional, organism-based; details: time 5.0 day
# [24] = Toxicity in C57BL/6 mouse assessed as change in LDH1 level at 50 to 200 mg/kg/day treated for 5 days; assay type: organism-based; details: in vivo, 120 h, dose 50-200 mg/kg/day, time 5 day
# [25] = Drug localization in HEK293T cells overexpressing mCherry-fused alpha-synuclein (unknown origin) assessed as colocalization of lysosomes at 50 uM incubated for 2 hrs by LyTG staining based confocal laser scanning microscopy; assay type: ADME, cell-based; details: human, hek-293t
# Alpha-synuclein [26] = molecular target: T2, Alpha-synuclein; test: Induction of alpha-synuclein (unknown origin) degradation overexpressed in HEK293T cells infected with adenovirus expressing mCherry-EGFP-LC3B incubated for 24 hrs by immunoblot analysis; assay type: cell-based
# Alpha-synuclein [27] = molecular target: T2, Alpha-synuclein; test: Binding affinity to alpha-synuclein (unknown origin) overexpressed in HEK293T cells at 50 to 100 uM incubated for 4 hrs by co-IP assay; assay type: cell-based; details: dose 50-100 µM
# SH-SY5Y [28] = test: Cytoprotective activity in human SH-SY5Y cells transfected with alpha-synuclein (unknown origin) assessed as increase in mitochondrial membrane potential level at 100 uM measured after 24 hrs by confocal laser scanning microscopy/flow cytometry (reference value: 45.02 +/- 5.04 %); assay type: functional
# HEK-293T [29] = test: Downregulation of SLC25A3 expression in HEK293T cells at 100 uM incubated for 24 hrs by proteomic profiling analysis; assay type: functional, cell-based; details: Homo sapiens
# HEK-293T [30] = test: Downregulation of MAT1A expression in HEK293T cells at 100 uM incubated for 24 hrs by proteomic profiling analysis; assay type: functional, cell-based; details: Homo sapiens
# Alpha-synuclein [31] = molecular target: T2, Alpha-synuclein; test: Induction of alpha-synuclein (unknown origin) degradation overexpressed in HEK293T cells at 50 uM incubated for 24 hrs in presence of MG132 by immunoblot analysis; assay type: cell-based
# Mus musculus [32] = test: Neuroprotective activity in MPTP-induced anxiety-like status in C57BL/6 mouse assessed as increase in zone transition number of mouse track at 50 mg/kg/day, iv treated for 5 days measured after 4 days by open field test; assay type: functional, organism-based; details: time 9.0 day
# Alpha-synuclein [33] = molecular target: T2, Alpha-synuclein; test: Induction of EGFP-fused alpha-synuclein (unknown origin) degradation overexpressed in HEK293T cells co-expressing mCherry-fused LC3B assessed as puncta formation of alpha-synuclein at 50 uM incubated for 2 hrs by confocal laser scanning microscopy; assay type: cell-based
smiles,measurement,setting,value
CC(C)C[C@H](NC(=O)[C@H](Cc1c[nH]cn1)NC(=O)[C@@H](NC(=O)[C@H](Cc1c[nH]c2ccccc12)NC(=O)[C@H](CC(=O)O)NC(=O)[C@H](CC(=O)O)NC(=O)[C@H](CC(=O)O)NC(=O)CNC(=O)CNC(=O)[C@H](CO)NC(=O)[C@H](CO)NC(=O)CNC(=O)[C@H](CO)NC(=O)CNC(=O)[C@H](CCCNC(=N)N)NC(=O)[C@@H](NC(=O)[C@H](CCCCN)NC(=O)[C@H](CO)NC(=O)CNC(=O)[C@@H](NC(=O)[C@H](Cc1ccc(O)cc1)NC(=O)[C@H](CC(C)C)NC(=O)[C@@H](NC(=O)CN)C(C)C)C(C)C)[C@H](C)O)[C@@H](C)O)C(=O)N[C@@H](CO)C(=O)N[C@@H](CO)C(=O)N[C@@H](Cc1ccc(O)cc1)C(=O)NCC(=O)N[C@@H](CCCNC(=N)N)C(=O)N[C@@H](CCCCN)C(=O)N[C@@H](CCCCN)C(=O)N[C@@H](CCCNC(=N)N)C(=O)N[C@@H](CCCNC(=N)N)C(=O)N[C@@H](CCC(N)=O)C(=O)N[C@@H](CCCNC(=N)N)C(=O)N[C@@H](CCCNC(=N)N)C(=O)N[C@@H](CCCNC(=N)N)C(=O)O,viability at 25 µM,SH-SY5Y [1],85.6%
same,Activity,SH-SY5Y [2],79.7%
same,Activity,[3],Non-Toxic
same,Activity,Mus musculus [4],Active
same,Kd,[5],14.9 µM
same,Activity,[6],Non-Toxic
same,Activity,[7],Non-Toxic
same,Activity,Mus musculus [8],Active
same,Activity,HEK-293T [9],Active
same,Activity,[10],Non-Toxic
same,viability at 50 µM,SH-SY5Y [11],91.8%
same,Activity,SH-SY5Y [12],inactive
same,Activity,[13],Active
same,Activity,[14],Dose-Dependent Effect
same,Activity,[15],Non-Toxic
same,Activity,SH-SY5Y [16],inactive
same,Activity,[17],Non-Toxic
same,Activity,HEK-293T [18],Active
same,Activity,Alpha-synuclein [19],Active
same,Activity,Mus musculus [20],Active
same,Activity,Mus musculus [21],Active
same,Activity,[22],Dose-Dependent Effect
same,Activity,Mus musculus [23],Active
same,Activity,[24],Non-Toxic
same,Drug uptake,[25],Active
same,DC50,Alpha-synuclein [26],46.8 µM
same,Activity,Alpha-synuclein [26]; dose <= 200.0 µM,Dose-Dependent Effect
same,Activity,Alpha-synuclein [27],Active
same,Activity,SH-SY5Y [28],61.65%
same,Activity,HEK-293T [29],Active
same,Activity,HEK-293T [30],Active
same,Activity,Alpha-synuclein [31],Active
same,Activity,Mus musculus [32],Active
same,Activity,Alpha-synuclein [33],Active
